The values that follow are results of earlier work, collected in patent publication US8449906B2, “Effervescent compositions comprising phosphonates and methods related thereto” (EffRx Pharmaceuticals, S.A., priority 2002, dated 2013).

`COc1ccc2[nH]c([S+]([O-])Cc3ncc(C)c(OC)c3C)nc2c1` (stereo not shown) [omeprazole]: the pKa entry is given as “about 3.9”.
